{
  "source": "patent US20210401798A1",
  "about": "“LIPOXIN A4 ANALOGS AND USES THEREOF” (The Brigham and Women's Hospital, Inc., priority 2018, published 2021)",
  "key": {"PMN": {"tested_on": "PMN", "experiment": "PMN clearance in vivo, E. coli initiated peritonitis", "set-up": "species or system mouse", "method": "FVB mice (male, 6 wks old) were inoculated with E. coli (10^5 CFU). […] Total leukocytes were enumerated using light microscopy and PMN numbers were determined by flow cytometry. […] Resolution indices were calculated using PMN numbers."}, "[1]": {"biological_target": "T1, human GPR32 (RvD1 Receptor) (Homo sapiens, UniProt O75388)", "T1 construct": "host or cells: CHO cells (CHO-GPR32)", "T1 sequence (O75388 whole entry)": "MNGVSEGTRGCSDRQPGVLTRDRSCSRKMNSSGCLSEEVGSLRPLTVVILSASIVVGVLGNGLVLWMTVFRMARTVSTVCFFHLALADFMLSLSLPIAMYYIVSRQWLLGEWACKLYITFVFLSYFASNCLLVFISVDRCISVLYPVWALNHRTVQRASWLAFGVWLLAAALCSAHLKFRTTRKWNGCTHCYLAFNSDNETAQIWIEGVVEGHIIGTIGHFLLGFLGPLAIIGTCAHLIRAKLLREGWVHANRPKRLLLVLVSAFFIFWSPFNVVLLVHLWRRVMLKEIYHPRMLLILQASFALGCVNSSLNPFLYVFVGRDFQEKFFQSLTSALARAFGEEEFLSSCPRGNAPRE", "experiment": "Beta-Arrestin PathHunter GPR32 activation assay", "format": "cell-based", "settings": "CHO-GPR32 cells, 1 h at 37° C., chemiluminescence", "method": "(§1) Ligand receptor interactions were monitored using the Beta-Arrestin PathHunter eXpress System™ (DiscoverX, Fremont, Calif.) and carried out with CHO cells stably overexpressing recombinant human GPR32 receptors. CHO-GPR32 cells were plated onto 96-well plates 24 h prior to experiments. Test compounds at indicated concentrations were incubated with cells for 1 h at 37° C. and receptor activation was determined by measuring chemiluminescence using the PathHunter detection kit. The results of this experiment are expressed as % increase of chemiluminescence above vehicle control (FIG. 2). Results are mean from 3 or 4 independent experiments and 3 replicates in each experiment."}, "[2]": {"biological_target": "T2, human recombinant CB1 receptor (Homo sapiens, UniProt P21554)", "T2 construct": "expressed in transfected cells; host or cells: Chem cells (membrane homogenates)", "T2 sequence (P21554 whole entry)": "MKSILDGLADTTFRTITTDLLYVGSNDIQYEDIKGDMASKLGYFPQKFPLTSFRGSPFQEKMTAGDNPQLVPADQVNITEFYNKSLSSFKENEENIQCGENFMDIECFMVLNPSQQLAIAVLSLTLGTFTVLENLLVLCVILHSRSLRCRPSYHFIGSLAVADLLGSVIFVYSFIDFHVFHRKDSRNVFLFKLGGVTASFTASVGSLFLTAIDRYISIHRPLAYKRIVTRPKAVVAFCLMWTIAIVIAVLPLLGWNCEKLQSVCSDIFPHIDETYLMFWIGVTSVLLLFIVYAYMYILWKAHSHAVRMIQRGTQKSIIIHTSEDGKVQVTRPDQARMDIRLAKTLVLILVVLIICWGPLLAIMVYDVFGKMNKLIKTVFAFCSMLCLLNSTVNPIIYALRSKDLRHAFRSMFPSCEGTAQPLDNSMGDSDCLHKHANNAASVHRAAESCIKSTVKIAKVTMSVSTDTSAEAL", "experiment": "CB1 radioligand binding assay", "method": "(§2) The binding affinity (% inhibition, K) of each of Compounds (1) and (2) for the CB1 and CB2 receptors was determined by a competitive radioligand binding assay. […] By comparison, no binding of the free acid to either the CB1 or CB2 receptors was observed (FIG. 5). The radioligand binding assays were performed as described below.\nCB1 Radioligand Binding Assay: Cell membrane homogenates (5 μg protein) prepared from Chem cells expressing human recombinant CB1 receptor were incubated for 30 min at 22° C. with 2 nM [^3H]CP 55940 (CB1/CB2 radioligand) in the absence or presence of the test compound in a buffer containing 50 mM Tris-HCl (pH 7.4), 5 mM MgCl2, 2.5 mM EDTA and 0.3% BSA. Nonspecific binding is determined in the presence of 10 μM WIN 55212-2. Each compound was tested in 8 concentrations. For each concentration, % Inhibition was determined as a function of radioligand specific binding to the CB1 receptor. The K was determined from the concentration-response curve of each tested compound.\n(§3) Further details for determining the binding affinity of compounds for a cannabinoid receptor by competitive radioligand binding can be found in the literature, for example, in Rinaldi-Carmona M, et al. Characterization of two cloned human CB1 cannabinoid receptors isoform. […]"}, "[3]": {"biological_target": "T3, human ALX/FPR2 (LXA4 Receptor) (Homo sapiens, UniProt P25090)", "T3 construct": "host or cells: HEK cells (HEK-ALX)", "T3 sequence (P25090 1-351)": "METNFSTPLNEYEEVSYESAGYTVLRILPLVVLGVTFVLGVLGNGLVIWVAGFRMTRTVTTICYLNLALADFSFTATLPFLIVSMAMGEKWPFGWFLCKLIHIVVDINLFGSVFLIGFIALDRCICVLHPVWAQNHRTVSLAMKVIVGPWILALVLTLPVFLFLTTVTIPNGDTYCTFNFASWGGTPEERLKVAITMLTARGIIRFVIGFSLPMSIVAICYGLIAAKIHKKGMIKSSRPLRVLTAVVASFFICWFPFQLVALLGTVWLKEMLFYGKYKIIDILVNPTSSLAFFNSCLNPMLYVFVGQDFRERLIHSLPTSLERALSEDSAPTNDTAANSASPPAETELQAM", "experiment": "Beta-Arrestin PathHunter ALX/FPR2 activation assay", "format": "cell-based", "settings": "HEK-ALX cells, 1 h at 37° C., chemiluminescence", "method": "as §1, with “HEK” for “CHO”, “ALX” for “GPR32”, “HEK-ALX” for “CHO-GPR32”, “Results” for “The results of this experiment”, “3).” for “2).”"}, "[4]": {"experiment": "Rat pharmacokinetic study", "format": "in vivo", "settings": "SD rats, IV 0.3 mg/kg", "method": "Sprague Dawley (SD) rats (n=3/group) were administered either compound (1) or compound (2) orally at 10 mg/kg (5% ethanol, 5% VE-TPGS, 90% PEG400) or intravenously at 0.3 mg/kg (5% NMP, 95% PEG400). The resulting individual and mean plasma concentration-time was measured for the free acid, compound (2), with the data provided in Tables 4-7."}, "Human Mϕ": {"tested_on": "Human Mϕ", "experiment": "Human macrophage phagocytosis of live E. coli", "format": "cell-based", "settings": "BacLight Green-labeled E. coli, fluorescence", "method": "Human Mϕ were plated onto chamber slides (0.1×10^6 cells/well), incubated with RvD1, compound (10 nM), or vehicle alone for 15 min at 37° C., followed by addition of BacLight Green-labeled E. coli to initiate phagocytosis. Fluorescent images were then recorded every 10 min for 120 min (37° C.) using Keyence BZ-9000 (BIOREVO) inverted fluorescence phase-contrast microscope (40× objective) equipped with a monochrome/color switching camera using BZ-II Viewer software (Keyence, Itasca, Ill., USA). Green fluorescence intensity was quantified using BZ-II Analyzer. Results are recordings of mean fluorescence intensity (MFI) from one representative donor (FIG. 6). Human Mϕ were plated onto 96-well plates (5×10^4 cells/well), incubated with RvD1, compound (1 pM-100 nM) or vehicle alone for 15 min at 37° C., followed by addition of BacLight Green-labeled E. coli (E. coli:Mϕ=50:1) to initiate phagocytosis. One hour later, fluorescence associated with Mϕ was determined using a microplate reader. Results are expressed as percent increase above vehicle (E. coli alone); mean from 4 separate experiments (FIG. 7)."}, "peritoneal lavage cells": {"tested_on": "peritoneal lavage cells", "experiment": "Cell count in mouse peritonitis model (zymosan)", "format": "in vivo"}, "[5]": {"biological_target": "T4, human recombinant CB2 receptor (Homo sapiens, UniProt P34972)", "T4 construct": "expressed in transfected cells; host or cells: CHO cells (membrane homogenates)", "T4 sequence (P34972 whole entry)": "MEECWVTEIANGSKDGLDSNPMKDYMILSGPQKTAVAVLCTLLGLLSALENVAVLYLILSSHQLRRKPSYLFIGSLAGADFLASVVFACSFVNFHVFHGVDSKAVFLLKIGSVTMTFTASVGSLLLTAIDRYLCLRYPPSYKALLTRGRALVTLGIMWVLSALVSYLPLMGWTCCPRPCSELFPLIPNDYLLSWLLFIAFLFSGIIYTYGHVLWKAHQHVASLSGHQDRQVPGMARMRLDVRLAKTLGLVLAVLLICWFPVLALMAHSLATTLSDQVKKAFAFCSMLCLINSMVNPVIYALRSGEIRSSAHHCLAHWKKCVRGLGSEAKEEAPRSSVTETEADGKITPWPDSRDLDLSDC", "experiment": "CB2 radioligand binding assay", "method": "as §2\nCB2 Radioligand Binding Assay: Cell membrane homogenates (12 μg protein) prepared from CHO cells expressing human recombinant CB2 receptor were incubated for 120 min at 37° C. with 0.8 nM [^3H]WIN 55212-2 (CB1/CB2 radioligand) in the absence or presence of the test compound in a buffer containing 50 mM Hepes/Tris (pH 7.4), 5 mM MgCl2, 2.5 mM EGTA and 0.1% BSA. Nonspecific binding was determined in the presence of 5 μM WIN 55212-2. Each compound was tested in 8 concentrations. For each concentration, % Inhibition was determined as a function of radioligand specific binding to the CB2 receptor. The K was determined from the concentration-response curve of each tested compound.\nas §3"}, "[6]": {"settings": "FVB mice, 100 ng i.p. 12 h after inoculation"}, "[7]": {"settings": "24 h post-zymosan, 0.1 μg/mouse"}},
  "data": [
    {"compound": "O=C1COC[C@@H]([C@H](O)/C=C/C=C/C#C/C=C/[C@H](O)COc2ccc(F)cc2)O1", "note": "[Compound (1), (S)-6-((1R,2E,4E,8E,10S)-11-(4-fluorophenoxy)-1,10-dihydroxyundeca-2,4,8-trien-6-yn-1-yl)-1,4-dioxan-2-one]", "values": [
      {"measurement": "Resolution Interval", "setting": "PMN; [6]", "result": 11, "unit": "h"},
      {"measurement": "T50", "setting": "PMN; [6]", "result": 23, "unit": "h"},
      {"measurement": "Tmax", "setting": "PMN; [6]", "result": 12, "unit": "h"},
      {"measurement": "reduction of Tmax", "setting": "PMN; vs E. coli alone", "result": 50, "unit": "%"},
      {"measurement": "activation of human GPR32 (RvD1 Receptor)", "setting": "[1]", "result": "activates"},
      {"measurement": "Ki", "setting": "[2]; [3H]CP 55940 competition, read-out: K (binding affinity) CB1 receptor", "result": "> 5000", "unit": "nM"},
      {"measurement": "activation of human ALX/FPR2 (LXA4 Receptor)", "setting": "[3]", "result": "activates"},
      {"measurement": "plasma Concentration of compound (2), Individual", "setting": "[4]; 8 hr, 0.3 mg/kg", "result": "BQL"},
      {"measurement": "plasma Concentration of compound (2), Individual", "setting": "[4]; 12 hr, 0.3 mg/kg", "result": "BQL"},
      {"measurement": "plasma Concentration of compound (2), Individual", "setting": "[4]; 24 hr", "result": "BQL"},
      {"measurement": "plasma Concentration of compound (2), Mean", "setting": "[4]; 24 hr", "result": "BQL"},
      {"measurement": "human macrophage phagocytosis of live E. coli", "setting": "Human Mϕ", "result": "enhances"},
      {"measurement": "Estimated PMNs", "setting": "peritoneal lavage cells; 3 h post-zymosan, 0.1 μg/mouse", "result": "5977.50 10^3/ml"},
      {"measurement": "Granulocytes Counted (100 cells)", "setting": "peritoneal lavage cells; 3 h post-zymosan, 0.1 μg/mouse", "result": 96.4},
      {"measurement": "Mononuclear Counted (100 cells)", "setting": "peritoneal lavage cells; 3 h post-zymosan, 0.1 μg/mouse", "result": 3.6},
      {"measurement": "Nucleated Cells", "setting": "peritoneal lavage cells; 3 h post-zymosan, 0.1 μg/mouse", "result": "6165.00 10^3/ml"},
      {"measurement": "Estimated PMNs", "setting": "peritoneal lavage cells; 3 h post-zymosan, 10 μg/mouse", "result": "*4012.13 10^3/ml"},
      {"measurement": "Granulocytes Counted (100 cells)", "setting": "peritoneal lavage cells; 3 h post-zymosan, 10 μg/mouse", "result": 95.0},
      {"measurement": "Mononuclear Counted (100 cells)", "setting": "peritoneal lavage cells; 3 h post-zymosan, 10 μg/mouse", "result": 5.0},
      {"measurement": "Nucleated Cells", "setting": "peritoneal lavage cells; 3 h post-zymosan, 10 μg/mouse", "result": "*4237.50 10^3/ml"},
      {"measurement": "Estimated PMNs", "setting": "peritoneal lavage cells; [7]", "result": "14672.70 10^3/ml"},
      {"measurement": "Granulocytes Counted (100 cells)", "setting": "peritoneal lavage cells; [7]", "result": 88.8},
      {"measurement": "Mononuclear Counted (100 cells)", "setting": "peritoneal lavage cells; [7]", "result": 11.2},
      {"measurement": "Nucleated Cells", "setting": "peritoneal lavage cells; [7]", "result": "16380.00 10^3/ml"},
      {"measurement": "Ki", "setting": "[5]; [3H]WIN 55212-2 competition, read-out: K (binding affinity) CB2 receptor", "result": 630, "unit": "nM"}
    ]},
    {"compound": "CC/C=C\\C[C@H](O)/C=C/C=C\\C=C\\C=C\\[C@@H](O)[C@@H](O)C/C=C\\CCC(=O)O", "note": "[RvD1, resolvin D1, reference compound]", "values": [
      {"measurement": "Estimated PMNs", "setting": "peritoneal lavage cells; 3 h post-zymosan, 0.1 μg/mouse", "result": "5723.25 10^3/ml"},
      {"measurement": "Granulocytes Counted (100 cells)", "setting": "peritoneal lavage cells; 3 h post-zymosan, 0.1 μg/mouse", "result": 89.8},
      {"measurement": "Mononuclear Counted (100 cells)", "setting": "peritoneal lavage cells; 3 h post-zymosan, 0.1 μg/mouse", "result": 10.8},
      {"measurement": "Nucleated Cells", "setting": "peritoneal lavage cells; 3 h post-zymosan, 0.1 μg/mouse", "result": "6375.00 10^3/ml"},
      {"measurement": "Estimated PMNs", "setting": "peritoneal lavage cells; 3 h post-zymosan, 1 μg/mouse", "result": "6685.13 10^3/ml"},
      {"measurement": "Granulocytes Counted (100 cells)", "setting": "peritoneal lavage cells; 3 h post-zymosan, 1 μg/mouse", "result": 96.3},
      {"measurement": "Mononuclear Counted (100 cells)", "setting": "peritoneal lavage cells; 3 h post-zymosan, 1 μg/mouse", "result": 3.8},
      {"measurement": "Nucleated Cells", "setting": "peritoneal lavage cells; 3 h post-zymosan, 1 μg/mouse", "result": "6232.50 10^3/ml"},
      {"measurement": "Estimated PMNs", "setting": "peritoneal lavage cells; 24 h post-zymosan, 1 μg/mouse", "result": "11496.23 10^3/ml"},
      {"measurement": "Granulocytes Counted (100 cells)", "setting": "peritoneal lavage cells; 24 h post-zymosan, 1 μg/mouse", "result": 86.6},
      {"measurement": "Mononuclear Counted (100 cells)", "setting": "peritoneal lavage cells; 24 h post-zymosan, 1 μg/mouse", "result": 13.4},
      {"measurement": "Nucleated Cells", "setting": "peritoneal lavage cells; 24 h post-zymosan, 1 μg/mouse", "result": "13267.50 10^3/ml"}
    ]},
    {"compound": "O=C(O)COC[C@H](O)[C@H](O)/C=C/C=C/C#C/C=C/[C@H](O)COc1ccc(F)cc1", "note": "[Compound (2), 2-(((2S,3R,4E,6E,10E,12S)-13-(4-fluorophenoxy)-2,3,12-trihydroxytrideca-4,6,10-trien-8-yn-1-yl)oxy)acetic acid, reference compound]", "values": [
      {"measurement": "binding to CB1 receptor", "setting": "[2]; radioligand binding", "result": "no binding"},
      {"measurement": "plasma Concentration of compound (2), Individual", "setting": "[4]; 12 hr, 0.3 mg/kg", "result": "BQL"},
      {"measurement": "plasma Concentration of compound (2), Individual", "setting": "[4]; 24 hr", "result": "BQL"},
      {"measurement": "plasma Concentration of compound (2), Mean", "setting": "[4]; 24 hr", "result": "BQL"},
      {"measurement": "binding to CB2 receptor", "setting": "[5]; radioligand binding", "result": "no binding"}
    ]}
  ]
}
